Like-named read-outs stand apart in the source and are kept apart here.
Test system: Phytophthora infestans
Type: in vivo
Settings: individual active compound, tomato leaves, protective, evaluated after 6 days

Structure (SMILES): Cc1ccc(-c2c(Cl)nc(C#N)n2S(=O)(=O)N(C)C)cc1 [Ia, cyazofamid]
- Efficacy in % of the untreated control (0.05 ppm in the spray liquor): 58%
- Efficacy in % of the untreated control (0.1 ppm in the spray liquor): 74%
- Efficacy in % of the untreated control (0.2 ppm in the spray liquor): 84%

From patent publication US20040029944A1 (priority 2001, published 2004)
